# Reference: patent publication US12724175B2, “Contact lens with optical prophylaxis” (High Performance Optics, Inc., priority 2021, dated 2026)
# Read-outs that look alike come from different tables or passages of the source.
# How the values were obtained:
# [1] = Stability under simulated photocuring conditions (450 nm LED, photoinitiator); format: physicochemical
# Method: (§1) The stabilities of exemplary compounds 8 and 9 were evaluated under various conditions in the presence of initiator and monomer under curing conditions in comparison with copper tetraphenylporphyrin (Cu-TPP) and zinc tetraphenylporphyrin (Zn-TPP) as controls.
# Experimental Procedure for Photo-Curing System:
# • (A) for Stability Test without Monomers • 1. Parent solution: Dimethylacetamide (DMAC) solutions (200-500 ppm) of corresponding porphyrins, namely ZnTPP (200 ppm), CuTPP (200 ppm), Cu-TBP-Am (500 ppm), and Cu-TBP-MAm (500 ppm) were prepared in amber glass vial. The solutions were allowed to stir at room temperature for about 0.5 hour to provide homogeneous solutions. Photoinitiator (0.6 wt %) was added to each solution (under yellow light), and the solution was stirred for another 1 hour. • 2. Solution “BEFORE” Thermal Treatment & UV-VIS Measurement: The solution was transferred into 100 μm quartz cell and UV-Vis spectra were recorded using Perkin Elmer Lambda 850 UV-Vis Spectrophotometer. The spectrum was regarded as “before”. • 3. Photocuring of Parent Solution: Each quartz cell was exposed to 450 nm LED light with intensity of 55 mW/cm^2 for 30 s. • 4. Solution “AFTER” photocuring & UV-VIS Measurement: UV-Vis spectra of solutions in 100 μm quartz cell exposed to LED light were recorded using Perkin Elmer Lambda 850 UV-Vis Spectrophotometer. The spectrum was regarded as “after”. • 5. % T Calculation: % Loss is expressed as % T increase at the specific wavelength of Soret band for each porphyrin solution. • (B) For Stability Test with Monomers • 1. Parent solution: Cu-TBP-Am and Cu-TBP-MAm were dissolved in DMA (30 wt %), TRIS (30 wt %) and 1-PrOH (40 wt %) in amber glass vial to afford 500 ppm porphyrin solutions. The solutions were allowed to stir at room temperature for about 0.5 hour to provide homogeneous solutions. Photoinitiator (0.6 wt %) was added to each solution (under yellow light), and the solution was stirred for another 1 hour. • 2. Solution “BEFORE” Thermal Treatment & UV-VIS Measurement: The solution was transferred into 100 μm quartz cell and UV-Vis spectra were recorded using Perkin Elmer Lambda 850 UV-Vis Spectrophotometer. The spectrum was regarded as “before”. • 3. Photocuring of Parent Solution: Each quartz cell was exposed to 450 nm LED light with intensity of 55 mW/cm^2 for 30 s. • 4. Solution “AFTER” photocuring & UV-VIS Measurement: UV-Vis spectra of solutions in 100 μm quartz cell exposed to LED light were recorded using Perkin Elmer Lambda 850 UV-Vis Spectrophotometer. The spectrum was regarded as “after”. • 5. % T Calculation: % Loss is expressed as % T increase at the specific wavelength of Soret band for each porphyrin solution. Experimental Procedure for Thermal-Curing System: • (A) for Stability Test without Monomers • 1. Parent solution: Dimethylacetamide (DMAC) solutions (500 ppm) of corresponding porphyrins, namely ZnTPP, CuTPP, Cu-TBP-Am, and Cu-TBP-MAm were prepared in amber glass vial. The solutions were allowed to stir at room temperature for about 0.5 hours to provide homogeneous solutions. Vazo 64 (0.5 wt %) was added to each solution, and the solution was stirred for another 10 minutes. Each solution was bubbled with nitrogen for 5 minutes to remove oxygen. • 2. […] The solution was transferred into 1 cm quartz cell and UV-Vis spectra were recorded using Perkin Elmer Lambda 850 UV-Vis Spectrophotometer. […]
# [2] = Stability under simulated thermal curing conditions (Vazo 64, 80° C., 2 hours); format: physicochemical; conditions: 500 ppm, Vazo 64 0.5 wt %; for Stability under simulated thermal curing, without monomers: DMAC
# Method: as §1
# • (A) for Stability Test without Monomers • 1. Parent solution: Dimethylacetamide (DMAC) solutions (200-500 ppm) of corresponding porphyrins, namely ZnTPP (200 ppm), CuTPP (200 ppm), Cu-TBP-Am (500 ppm), and Cu-TBP-MAm (500 ppm) were prepared in amber glass vial. The solutions were allowed to stir at room temperature for about 0.5 hour to provide homogeneous solutions. Photoinitiator (0.6 wt %) was added to each solution (under yellow light), and the solution was stirred for another 1 hour. • 2. Solution “BEFORE” Thermal Treatment & UV-VIS Measurement: The solution was transferred into 100 μm quartz cell and UV-Vis spectra were recorded using Perkin Elmer Lambda 850 UV-Vis Spectrophotometer. The spectrum was regarded as “before”. • 3. […] Solution “AFTER” photocuring & UV-VIS Measurement: UV-Vis spectra of solutions in 100 μm quartz cell exposed to LED light were recorded using Perkin Elmer Lambda 850 UV-Vis Spectrophotometer. The spectrum was regarded as “after”. • 5. % T Calculation: % Loss is expressed as % T increase at the specific wavelength of Soret band for each porphyrin solution. • (B) For Stability Test with Monomers • 1. […] Solution “BEFORE” Thermal Treatment & UV-VIS Measurement: The solution was transferred into 100 μm quartz cell and UV-Vis spectra were recorded using Perkin Elmer Lambda 850 UV-Vis Spectrophotometer. […] Solution “AFTER” photocuring & UV-VIS Measurement: UV-Vis spectra of solutions in 100 μm quartz cell exposed to LED light were recorded using Perkin Elmer Lambda 850 UV-Vis Spectrophotometer. The spectrum was regarded as “after”. • 5. % T Calculation: % Loss is expressed as % T increase at the specific wavelength of Soret band for each porphyrin solution. […] The solution was transferred into 1 cm quartz cell and UV-Vis spectra were recorded using Perkin Elmer Lambda 850 UV-Vis Spectrophotometer. […]
# [3] = Solubility studies at 500 ppm in solvent, monomers and simulated formulation
# Method: The solubilities of exemplary compounds 8 and 9 were evaluated in various solvent systems in comparison with copper tetraphenylporphyrin (Cu-TPP) as a control.
# • 1. Weigh 3 to 4 mg of the Copper porphyrin compound into an 8 mL scintillation vial • 2. In the case of one solvent or monomer, dilute to 500 ppm with the solvent or monomer, add a stir bar, and stir mixture overnight. • 3. In the case of multiple solvents, add the best solvent for the copper porphyrin first, add a stir bar and stir for 1 hour. Add the other solvents and stir overnight. • 4. Evaluate solution miscibility after stirring overnight.
# [4] = UV-visible transmittance, molar extinction coefficient of Soret band; format: physicochemical; conditions: concentrations 300 to 1000 ppm
# Method: ^1H-NMR spectra were recorded on Bruker 600 MHz spectrometer. CD3OD (Methanol-d3) and DMSO-d6 (Dimethyl sulfoxide-d6) were used as solvents. UPLC of porphyrins was acquired on ACQUITY UPLC H-Class PLUS UPLC with Waters PDA detector, using Phenomenex Jupiter® 5 μm C18 300 Å, LC Column (150×2.0 mm). LC-MS of porphyrins was acquired on The Thermo Scientific™ Q Exactive™ HF hybrid quadrupole-Orbitrap mass spectrometer, using Phenomenex Aeris™ 3.6 μm WIDEPORE C4 200 Å, LC Column (50×2.1 mm). UV-vis spectra were obtained on Perkin Elmer Lambda 850 UV-Vis Spectrophotometer.
# (§2) Compound 8 also characterized by UV-visible transmittance at concentrations ranging from 300 to 1000 ppm (FIG. 15). Molar extinction coefficients of 490,000-544,000 M-1 cm-1 for Soret band are in agreement with literature values for similar metallated porphyrins (Taniguchi, M.; Lindsey, J. S. Photochemistry and Photobiology, 2018, 94, 290-327).
# as §2, with “Compound 9” for “Compound 8”, “(FIG. 16).” for “(FIG. 15).”, “490,000-544,000 M^−1 cm^−1” for “490,000-544,000 M-1 cm-1”
# [5] = DMAC, photoinitiator 0.6 wt %, 450 nm LED 55 mW/cm^2 for 30 s
# [6] = 500 ppm, 1-Propanol, stirred overnight
# [7] = 500 ppm, monomer DMA, stirred overnight
# [8] = 500 ppm, monomer HEMA, stirred overnight
# [9] = 500 ppm, simulated formulation 1-PrOH/DMA/TRIS (1:1:1)
# [10] = 500 ppm, simulated formulation 1-PrOH/DMA/TRIS/Silicone oil (1:1:1:1)
Compound,"Stability (% T increase at Soret band) under simulated photocuring, without monomers [1, 5]","Stability under simulated thermal curing, without monomers [2]","Stability (% T increase at Soret band) under simulated photocuring, without monomers [1]",Solubility [3],Molar extinction coefficients for Soret band [4],"Stability (% T increase at Soret band) under simulated photocuring, with monomers ([1]; DMA/TRIS/1-PrOH, 500 ppm, photoinitiator 0.6 wt %, 450 nm LED 55 mW/cm^2 for 30 s)","Stability under simulated thermal curing, with monomers ([2]; DMA/TRIS/1-PrOH)","Solubility [3, 6]","Solubility [3, 7]","Solubility [3, 8]","Solubility [3, 9]","Solubility [3, 10]"
"C1=Cc2nc1c(-c1ccccc1)c1ccc([n-]1)c(-c1ccccc1)c1nc(c(-c3ccccc3)c3ccc([n-]3)c2-c2ccccc2)C=C1.[Zn+2] [ZnTPP, zinc tetraphenylporphyrin, reference compound]",CuTPP is significantly more stable than ZnTPP,difference is not observed,,,,,,,,,,
"C=C(C)C(=O)NCCC[N+](C)(C)Cc1ccc(/C2=C3\C=CC(=N3)/C(c3ccc(C[N+](C)(C)CCCNC(=O)C(=C)C)cc3)=c3/cc/c4[n]3[Cu][n]3c2ccc3/C(c2ccc(C[N+](C)(C)CCCNC(=O)C(=C)C)cc2)=C2/C=CC(=N2)\C=4c2ccc(C[N+](C)(C)CCCNC(=O)C(=C)C)cc2)cc1 [Compound 8, Cu(II) tetra-(dimethylaminopropylmethacrylamidophenyl) porphine tetrabromide]",,,show % T increase,Soluble,"490,000-544,000 M^−1 cm^−1",,,,,,,
"C=CC(=O)NCCC[N+](C)(C)Cc1ccc(/C2=C3\C=CC(=N3)/C(c3ccc(C[N+](C)(C)CCCNC(=O)C=C)cc3)=c3/cc/c4[n]3[Cu][n]3c2ccc3/C(c2ccc(C[N+](C)(C)CCCNC(=O)C=C)cc2)=C2/C=CC(=N2)\C=4c2ccc(C[N+](C)(C)CCCNC(=O)C=C)cc2)cc1 [Compound 9, Cu(II) tetra-(dimethylaminopropylacrylamidophenyl) porphine tetrabromide]",show % T increase,much better stability,,,"490,000-544,000 M^−1 cm^−1",not observed,much better stability,Soluble,Partially,Soluble,Soluble,Partially
"copper tetraphenylporphyrin [Cu-TPP, reference compound]",,,significantly more stable than ZnTPP,,,,,Insoluble,Soluble,Insoluble,Insoluble,Insoluble
